Experimental data taken from paper PMC11335512, “The first-in-class pro-apoptotic peptide PEP-010 is effective in monotherapy and in combination with paclitaxel on resistant ovarian adenocarcinoma cell models” (Frontiers in Pharmacology, 2024).

Key:
Format in all cases: cell-based
IGROV1CDDP [1] = assay: MTT assay, IC50 determination of chemotherapies; details: for IC50: MTT assay, 72 h treatment, IGROV1CDDP (cisplatin-resistant), mean ± SEM, three to six independent biological replicates
Protocol: (§1) The ovarian cell lines IGROV1, IGROV1CDDP, and IGROV1VCR were cultivated in RPMI 1640 Medium GlutaMAX with 10% FBS and 1% of pyruvate and glutamine. They were maintained at 5% CO2 and 37°C in a humidified atmosphere. All reagents are from Gibco® (Thermo Fisher Scientific, Carlsbad, CA, United States).
(§2) PEP-010 was first dissolved in 0.1% formic acid (10 mM) and then diluted in a cell culture medium at pH9 (to allow a full dissolution of the peptide). Experiments in similar conditions, but without the peptide, were conducted as negative controls. Staurosporine (Selleckchem, Houston, TX, United States) was used as a positive control at a concentration of 1 µM. Cells were collected or analyzed at the indicated time points. For combination conditions, the cells were treated with paclitaxel (Accord, London, United Kingdom) at the indicated concentrations for 72 h.
(§3) Here, 10,000 cells were seeded on 96-well plates in 100 µL of medium. The day after, the medium was replaced with fresh medium containing the appropriate drugs at the indicated concentrations: cisplatin (Mylan, Canonsburg, PA, United States), paclitaxel (Accord, London, United Kingdom), doxorubicin (Pfizer, New York, NY, United States), vincristine [Pfizer, New York, NY, United States)], and/or PEP-010. The plates were incubated at 37° in humidified air with 5% CO2 for 72 h. The MTT reagent (20 µL) was added at the end of the indicated time points, and plates were incubated for 2 h at 37°C. In addition, 100 µL of lysis buffer was added to each well. Subsequently, the plates were incubated for 2 h at 37°C, and the absorbance was measured at 570 nm (Tecan, Männedorf, CH).

IGROV1 [2] = assay: MTT assay, IC50 determination of chemotherapies; details: Homo sapiens, IGROV-1, 72 h treatment, IGROV1 parental, three to six independent biological replicates
Protocol: as §1, §2, §3

IGROV1VCR [3] = assay: MTT assay, IC50 determination of chemotherapies alone or with PEP-010; details: for fold change (FC) vs. IC50 IGROV1: IC50 in IGROV1VCR over IC50 in IGROV1, MTT 72 h; for IC50: 72 h treatment, IGROV1VCR (vincristine-resistant, expresses MDR pumps), drug alone, mean ± SEM, three to six independent biological replicates
Protocol: as §1, §2, §3

IGROV1CDDP [4] = assay: Apoptosis measurement, Annexin V/PI staining and FACS analysis; details: PEP-010 12.5 µM, 24 h post-treatment, untreated control 14.6 ± 1.2, mean ± SEM, three independent biological replicates
Protocol: as §2
(§4) Cell death was assessed using Annexin V-APC and propidium iodide (PI) (BioLegend, San Diego, CA, United States) staining following the manufacturer’s instructions. Results were analyzed as previously described ([Debernardi et al., 2018]). A total of 10,000 events were analyzed using a C6 Accuri Cytometer (Becton-Dickinson, Franklin Lakes, NJ, United States), analysis was performed using integrated software, and Annexin V positive cells (PI positive and negative) were counted as apoptotic.

IGROV1VCR [5] = assay: as above
Protocol: as §2, §4

IGROV1 [6] = assay: as above; details: PEP-010 12.5 µM, 24 h post-treatment, untreated control 11 ± 1.3, mean ± SEM, three independent biological replicates
Protocol: as §2, §4

IGROV1CDDP [7] = assay: DNA damage, γH2AX immunofluorescence; details: 48 h post-treatment with PEP-010, IGROV1CDDP; untreated control 15.8 ± 2.8; mean ± SEM, three biological replicates
Protocol: (§5) Cells were seeded on 12 mm coverslips placed in a 24-well plate (24 h, 37°C, and 5% CO2). Cells were treated with PEP-010 as previously described. At the indicated time point, cells were washed with 1X PBS and fixed in 4% paraformaldehyde (Euromedex, Souffelweyersheim, FR) in 1X PBS (10 min, RT), followed by three washes in 1X PBS. Cells were then permeabilized with 2% Triton X-100 (Euromedex, Souffelweyersheim, FR) in 1X PBS (10 min, RT) and then washed in 1X PBS. Cells were saturated with 0.5% BSA (Euromedex, Souffelweyersheim, FR) in 1X PBS (40 min, RT) and then stained with an anti-γH2AX Ser139 antibody (mouse, 1:200, from BioLegend #613402). Incubation with primary antibody (2 h, RT) was followed by three washes in 1X PBS and by incubation (1 h, RT) with a secondary antibody conjugated to Alexa Fluor […] goat anti-mouse (Thermo Fisher Scientific, Carlsbad, CA, United States), diluted 1:200. Coverslips were mounted on microscopy glass slides using a mounting medium containing DAPI (Sigma-Aldrich, Saint-Quentin-Fallavier, Cedex, France). Images were acquired using a fluorescence microscope (Zeiss Observer Z1). Images were analyzed using ImageJ software.

IGROV1VCR [8] = assay: DNA damage, γH2AX immunofluorescence; details: 48 h post-treatment with PEP-010, IGROV1VCR; untreated control 20.7 ± 1.7; mean ± SEM, three biological replicates
Protocol: as §5

[9] = system: ovarian adenocarcinoma cell models resistant to different chemotherapies; assay: Cell death in monotherapy (Annexin-V/Propidium Iodide staining and flow cytometry); details: PEP-010 monotherapy; highest value stated in abstract, dose and cell line not stated there
Protocol: as §2, §4

Molecule: CC(=O)O[C@H]1C(=O)[C@@]2(C)[C@H]([C@H](OC(=O)c3ccccc3)[C@]3(O)C[C@H](OC(=O)[C@H](O)[C@@H](NC(=O)c4ccccc4)c4ccccc4)C(C)=C1C3(C)C)[C@]1(OC(C)=O)CO[C@@H]1C[C@@H]2O [Paclitaxel, paclitaxel]
- IC50 (IGROV1CDDP [1]): 500 nM
- IC50 (IGROV1 [2]): 750 nM
- fold change (FC) vs. IC50 IGROV1 (IGROV1VCR [3]): 3.9
- IC50 (IGROV1VCR [3]; MTT assay): 2900 nM

Molecule: CC[C@]1(O)C[C@H]2CN(CCc3c([nH]c4ccccc34)[C@@](C(=O)OC)(c3cc4c(cc3OC)N(C=O)[C@H]3[C@@](O)(C(=O)OC)[C@H](OC(C)=O)[C@]5(CC)C=CCN6CC[C@]43[C@@H]65)C2)C1 [Vincristine, vincristine]
- IC50 (IGROV1CDDP [1]): 900 nM
- IC50 (IGROV1 [2]): 34 nM
- fold change (FC) vs. IC50 IGROV1 (IGROV1VCR [3]): 97
- IC50 (IGROV1VCR [3]; MTT assay): 3300 nM

Molecule: VKKKKIKAEIKIYVETLDDIFEQWAHSEDL [PEP-010]
- FC, reduction of the IC50 of paclitaxel (PTX alone vs. PTX + PEP-010) (IGROV1VCR [3]; MTT assay, 72 h, IGROV1VCR, PEP-010 25 µM): 2.2
- total % of Annexin V positive cells (IGROV1CDDP [4]): 38.7 ± 8.5%
- total % of Annexin V positive cells (IGROV1VCR [5]; PEP-010 12.5 µM, 24 h post-treatment, IGROV1VCR, untreated control 12.6 ± 0.9, mean ± SEM, three independent biological replicates): 37 ± 4%
- apoptosis, % of cells, combination with paclitaxel (IGROV1VCR [5]; PEP-010 in combination with paclitaxel, stated in abstract, doses not given): 87%
- total % of Annexin V positive cells (IGROV1 [6]): 37.4 ± 1.9%
- % of γH2AX positive cells (IGROV1CDDP [7]): 26.5 ± 3.1%
- % of γH2AX positive cells (IGROV1VCR [8]): 29.5 ± 2.6%
- cell death in monotherapy, % of cells [9]: up to 55%

Molecule: COc1cccc2c1C(=O)c1c(O)c3c(c(O)c1C2=O)C[C@@](O)(C(=O)CO)C[C@@H]3O[C@H]1C[C@H](N)[C@H](O)[C@H](C)O1 [Doxorubicin, doxorubicin]
- IC50 (IGROV1CDDP [1]): 500 nM
- IC50 (IGROV1 [2]): 400 nM
- IC50 (IGROV1VCR [3]; MTT assay): > 10000 nM

Molecule: N.N.[Cl][Pt][Cl] [Cisplatin, cisplatin]
- fold change (FC) vs. IC50 IGROV1 (IGROV1CDDP [1]; IC50 in IGROV1CDDP over IC50 in IGROV1, MTT 72 h): 11.1
- IC50 (IGROV1CDDP [1]): 25700 nM
- fold change (FC) vs. IC50 IGROV1 (IGROV1VCR [3]): 6.5
- IC50 (IGROV1VCR [3]; MTT assay): 15000 nM
